Laboratory results from patent US20240366514A1, “PHARMACEUTICAL COMPOSITIONS OF OZANIMOD” (ZYDUS LIFESCIENCES LIMITED, priority 2021, published 2024).

Tested on: TNBS induced colitis model in rat
Assay: Pharmacodynamic (PD) study in TNBS induced colitis model in rat
Assay type: in vivo, Wistar rat male
Procedure: However, these differences in PK parameters were not observed in Pharmacodynamic (PD) study (Experiment 02) conducted in TNBS induced colitis model in rat. […] In this study, the efficacy parameters measured were colon weight to length ratio, colonic […] score (which includes sum of Adhesion score, Stricture score, Ulcer, Wall thickness) and Lymphocyte count. Colon weight to length ratio and macroscopic colon disease score were determined at the end of the study, whereas Lymphocyte count in circulation relative to vehicle treated TNBS challenged diseased animals (Vehicle control) was assessed 24 h after the last dose. […] The reasons for the similar efficacy response even at the differences in PK profile between both the formulations could be due to receptor saturation of S1P1 receptors overexpressed at the intestine at the dose of 1 mg/kg administered in both the treatment groups. […] The cardiac side effects such as Bradyarrhythmia and Atrioventricular Conduction Delays, which are associated with high Cmax from immediate-release formulation, get reduced or eliminated with the use of delayed-release formulation without affecting efficacy. Thus, the delayed-release formulation may also offer the skipping or reduce frequency of up-titration scheme.

Q: Which “Lymphocyte count, % Inhibition (Mean ± SEM)” value (24 h after the last dose, relative to vehicle treated TNBS challenged animals) does the source give for `Nc1ccc(O)c(C(=O)O)c1` [Mesalamine] here?
A: 13.39 ± 21.66%

Q: What about the inhibition at 150 mg/kg (144 h, oral once a day for 6 days, IR 1 mg/kg, DR 0.89 mg/kg, Mesalamine 150 mg/kg, versus vehicle control, read-out: Colon Macroscopic Score, % Inhibition (Mean ± SEM)) of the same compound?
A: 56.5 ± 5.02%

Q: And the “Lymphocyte count (10^3/μL), Observation (Mean ± SEM)” value (circulating, 24 h after the last dose, IR 1 mg/kg, DR 0.89 mg/kg, Mesalamine 150 mg/kg oral for 6 days)?
A: 7.6 ± 1.9 10^3/μL

Q: And the “Colon Weight to Length ratio (mg/cm), Observation (Mean ± SEM)” value (oral once a day for 6 consecutive days, IR 1 mg/kg, DR 0.89 mg/kg, Mesalamine 150 mg/kg, end of study)?
A: 120.44 ± 4.22 mg/cm

Q: What about the “Colon Macroscopic Score [Sum of scores of Adhesion score, Stricture score, Ulcer, Wall thickness], Observation (Mean ± SEM)” value (oral once a day for 6 days, IR 1 mg/kg, DR 0.89 mg/kg, Mesalamine 150 mg/kg, end of study) of the same compound?
A: 2.5 ± 0.29

Q: And the “Colon Weight to Length ratio, % Inhibition (Mean ± SEM)” value (oral once a day for 6 days, IR 1 mg/kg, DR 0.89 mg/kg, Mesalamine 150 mg/kg, versus vehicle control)?
A: 41.75 ± 2.04%
